*1 amine or outer side, *2 acyl side, *3 side chain or, on linkers, in order; H or OH if unused. Where a SMILES comes first, the peptide text is derived from it. Bridges are numbered along the chain shown (N, C = ends). [ ]: non-standard residue; d: D form. The star is where a group is joined. hPhe(3-Cl-4-CF3) = N[C@@H](CCc1ccc(C(F)(F)F)c(Cl)c1)C(=O)O; NPrPhe(4-CF3) = CCCN[C@@H](Cc1ccc(C(F)(F)F)cc1)C(=O)O; Pro(4-spirocPr) = O=C(O)[C@@H]1CC2(CC2)CN1; Abu(4,4,4-F3) = N[C@@H](CC(F)(F)F)C(=O)O; Morpholine(3S-CO) = O=C(O)[C@@H]1COCCN1; Pip(4,4-F2) = O=C(O)[C@@H]1CC(F)(F)CCN1; NMeGly(cPent) = CN[C@H](C(=O)O)C1CCCC1; Hyp = O=C(O)[C@@H]1C[C@@H](O)CN1; NMeD = CN[C@@H](CC(=O)O)C(=O)O; NMeL = CN[C@@H](CC(C)C)C(=O)O; X10 = N#CCN(CC(=O)[*:2])[*:1]; hPip = O=C(O)[C@@H]1CCCCCN1; Pip = O=C(O)[C@@H]1CCCCN1; Morpholide = C1CN(*)CCO1; NMeA = CN[C@@H](C)C(=O)O; Ac5c = NC1(C(=O)O)CCCC1; Aze = O=C(O)[C@@H]1CCN1; NPrGly = CCCNCC(=O)O; NEtG = CCNCC(=O)O; Sar = CNCC(=O)O
What was measured:
HRAS wild-type protein = HRAS wild-type protein (Homo sapiens, UniProt P01112); assay: Binding to HRAS by surface plasmon resonance (SPR), KD and KD ratio to KRAS; conditions: ratio of KD for HRAS wild-type protein to KD for KRAS
Sequence of HRAS wild-type protein (P01112 whole entry): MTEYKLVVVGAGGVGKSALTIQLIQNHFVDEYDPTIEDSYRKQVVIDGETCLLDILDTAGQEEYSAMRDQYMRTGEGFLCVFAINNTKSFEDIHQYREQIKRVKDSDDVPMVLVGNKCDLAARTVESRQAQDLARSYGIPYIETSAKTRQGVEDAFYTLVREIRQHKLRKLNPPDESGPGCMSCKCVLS
In short: (§1)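 GDP-bound biotin-Avi RAS captured at ~100–300 RU, 30°C, pH 7.4 HBS containing 10 µM GDP, 10 mM MgCl2, 1 mM DTT, 0.01% Tween 20 and 4% DMSO. KD by 1:1 fitting.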

[1] = system: human lung cancer strain NCI-H441; type: cell-based
In short: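 Readout: […] after the ATP-based reagent. Compound: serial dilutions in dimethyl sulfoxide.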

[2] = biological target: GDP-bound NRAS wild-type protein (Homo sapiens, UniProt P01111); assay: Binding to NRAS by surface plasmon resonance (SPR), KD and KD ratio to KRAS; conditions: ratio of KD for GDP-bound NRAS wild-type protein to KD for KRAS
Sequence of GDP-bound NRAS wild-type protein (P01111 whole entry): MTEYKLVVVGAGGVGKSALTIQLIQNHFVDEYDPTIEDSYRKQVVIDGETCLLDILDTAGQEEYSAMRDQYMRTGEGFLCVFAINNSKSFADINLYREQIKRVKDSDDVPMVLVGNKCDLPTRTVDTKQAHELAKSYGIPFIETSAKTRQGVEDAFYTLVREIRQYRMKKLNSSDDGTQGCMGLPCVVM
In short: as §1

Structure (SMILES)	HRAS /KRAS (HRAS wild-type protein)	IC50 [1]	NRAS /KRAS [2]
CCCN1CC(=O)N2CC[C@H]2C(=O)N(CCC)[C@@H](Cc2ccc(C(F)(F)F)cc2)C(=O)N(C)CC(=O)N[C@@H](CCc2ccc(C(F)(F)F)c(Cl)c2)C(=O)N2CCC[C@H]2C(=O)NC2(CCCC2)C(=O)N(C)[C@@H](C2CCCC2)C(=O)N(C)[C@H](C(=O)N2CCOCC2)CC(=O)N(C)[C@@H](CC(C)C)C(=O)N[C@@H]([C@@H](C)CC)C1=O [PP0274] ([NMeL]I[NPrGly][Aze][NPrPhe(4-CF3)][Sar][hPhe(3-Cl-4-CF3)]P[Ac5c][NMeGly(cPent)][NMeD]-Morpholide; lactam N-11)	B (a compound having 3 or more and less than 10 is denoted as B)	9.1 nM	C (A compound having a KD ratio of 0.1 or more and less than 3 is denoted as C)
CCCN1C(=O)[C@@H]2CCN2C(=O)CN(CC#N)C(=O)[C@H]([C@@H](C)CC)NC(=O)[C@H](CC(C)C)N(C)C(=O)C[C@@H](C(=O)N2CCOCC2)N(C)C(=O)[C@H](C2CCCC2)N(C)C(=O)C2(CCCC2)NC(=O)[C@@H]2CCCN2C(=O)[C@H](CCc2ccc(C(F)(F)F)c(Cl)c2)NC(=O)CN(C)C(=O)[C@@H]1Cc1ccc(C(F)(F)F)cc1 [PP0275] ([NMeL]I[X10][Aze][NPrPhe(4-CF3)][Sar][hPhe(3-Cl-4-CF3)]P[Ac5c][NMeGly(cPent)][NMeD]-Morpholide; lactam N-11)	C (A compound having a KD ratio of 0.1 or more and less than 3 is denoted as C)	9.3 nM	C (A compound having a KD ratio of 0.1 or more and less than 3 is denoted as C)
CCCN1C(=O)[C@@H]2CCN2C(=O)[C@H](C)N(C)C(=O)[C@H]([C@@H](C)CC)NC(=O)[C@H](CC(C)C)N(C)C(=O)C[C@@H](C(=O)N2CCOCC2)N(C)C(=O)[C@H](C2CCCC2)N(C)C(=O)C2(CCCC2)NC(=O)[C@@H]2CCN2C(=O)[C@H](CCc2ccc(C(F)(F)F)c(Cl)c2)NC(=O)CN(C)C(=O)[C@@H]1Cc1ccc(C(F)(F)F)cc1 [PP0281] ([NMeL]I[NMeA][Aze][NPrPhe(4-CF3)][Sar][hPhe(3-Cl-4-CF3)][Aze][Ac5c][NMeGly(cPent)][NMeD]-Morpholide; lactam N-11)	C (A compound having a KD ratio of 0.1 or more and less than 3 is denoted as C)	7.8 nM	C (A compound having a KD ratio of 0.1 or more and less than 3 is denoted as C)
CCCN1C(=O)[C@@H]2CCN2C(=O)[C@H](C)N(C)C(=O)[C@H]([C@@H](C)CC)NC(=O)[C@H](CC(C)C)N(C)C(=O)C[C@@H](C(=O)N2CCOCC2)N(C)C(=O)[C@H](C2CCCC2)N(C)C(=O)C2(CCCC2)NC(=O)[C@@H]2CC3(CC3)CN2C(=O)[C@H](CCc2ccc(C(F)(F)F)c(Cl)c2)NC(=O)CN(C)C(=O)[C@@H]1Cc1ccc(C(F)(F)F)cc1 [PP0282] ([NMeL]I[NMeA][Aze][NPrPhe(4-CF3)][Sar][hPhe(3-Cl-4-CF3)][Pro(4-spirocPr)][Ac5c][NMeGly(cPent)][NMeD]-Morpholide; lactam N-11)	C (A compound having a KD ratio of 0.1 or more and less than 3 is denoted as C)	3.9 nM	C (A compound having a KD ratio of 0.1 or more and less than 3 is denoted as C)
CCCN1C(=O)[C@@H]2CCN2C(=O)[C@H](C)N(C)C(=O)[C@H]([C@@H](C)CC)NC(=O)[C@H](CC(C)C)N(C)C(=O)C[C@@H](C(=O)N2CCOCC2)N(C)C(=O)[C@H](C2CCCC2)N(C)C(=O)C2(CCCC2)NC(=O)[C@@H]2C[C@@H](OC)CN2C(=O)[C@H](CCc2ccc(C(F)(F)F)c(Cl)c2)NC(=O)CN(C)C(=O)[C@@H]1Cc1ccc(C(F)(F)F)cc1 [PP0283] ([NMeL]I[NMeA][Aze][NPrPhe(4-CF3)][Sar][hPhe(3-Cl-4-CF3)][Hyp](Me)[Ac5c][NMeGly(cPent)][NMeD]-Morpholide; lactam N-11)	C (A compound having a KD ratio of 0.1 or more and less than 3 is denoted as C)	1.9 nM	C (A compound having a KD ratio of 0.1 or more and less than 3 is denoted as C)
CCCN1C(=O)[C@@H]2CCN2C(=O)[C@H](C)N(C)C(=O)[C@H]([C@@H](C)CC)NC(=O)[C@H](CC(C)C)N(C)C(=O)C[C@@H](C(=O)N2CCOCC2)N(C)C(=O)[C@H](C2CCCC2)N(C)C(=O)C2(CCCC2)NC(=O)[C@@H]2CCCCN2C(=O)[C@H](CCc2ccc(C(F)(F)F)c(Cl)c2)NC(=O)CN(C)C(=O)[C@@H]1Cc1ccc(C(F)(F)F)cc1 [PP0284] ([NMeL]I[NMeA][Aze][NPrPhe(4-CF3)][Sar][hPhe(3-Cl-4-CF3)][Pip][Ac5c][NMeGly(cPent)][NMeD]-Morpholide; lactam N-11)	B (a compound having 3 or more and less than 10 is denoted as B)	29 nM	C (A compound having a KD ratio of 0.1 or more and less than 3 is denoted as C)
CCCN1C(=O)[C@@H]2CCN2C(=O)[C@H](C)N(C)C(=O)[C@H]([C@@H](C)CC)NC(=O)[C@H](CC(C)C)N(C)C(=O)C[C@@H](C(=O)N2CCOCC2)N(C)C(=O)[C@H](C2CCCC2)N(C)C(=O)C2(CCCC2)NC(=O)[C@@H]2CC(F)(F)CCN2C(=O)[C@H](CCc2ccc(C(F)(F)F)c(Cl)c2)NC(=O)CN(C)C(=O)[C@@H]1Cc1ccc(C(F)(F)F)cc1 [PP0285] ([NMeL]I[NMeA][Aze][NPrPhe(4-CF3)][Sar][hPhe(3-Cl-4-CF3)][Pip(4,4-F2)][Ac5c][NMeGly(cPent)][NMeD]-Morpholide; lactam N-11)	B (a compound having 3 or more and less than 10 is denoted as B)	18.9 nM	C (A compound having a KD ratio of 0.1 or more and less than 3 is denoted as C)
CCCN1C(=O)[C@@H]2CCN2C(=O)[C@H](C)N(C)C(=O)[C@H]([C@@H](C)CC)NC(=O)[C@H](CC(C)C)N(C)C(=O)C[C@@H](C(=O)N2CCOCC2)N(C)C(=O)[C@H](C2CCCC2)N(C)C(=O)C2(CCCC2)NC(=O)[C@@H]2COCCN2C(=O)[C@H](CCc2ccc(C(F)(F)F)c(Cl)c2)NC(=O)CN(C)C(=O)[C@@H]1Cc1ccc(C(F)(F)F)cc1 [PP0286] ([NMeL]I[NMeA][Aze][NPrPhe(4-CF3)][Sar][hPhe(3-Cl-4-CF3)][Morpholine(3S-CO)][Ac5c][NMeGly(cPent)][NMeD]-Morpholide; lactam N-11)	B (a compound having 3 or more and less than 10 is denoted as B)	35 nM	C (A compound having a KD ratio of 0.1 or more and less than 3 is denoted as C)
CCCN1C(=O)[C@@H]2CCN2C(=O)[C@H](C)N(C)C(=O)[C@H]([C@@H](C)CC)NC(=O)[C@H](CC(C)C)N(C)C(=O)C[C@@H](C(=O)N2CCOCC2)N(C)C(=O)[C@H](C2CCCC2)N(C)C(=O)C2(CCCC2)NC(=O)CN(C)C(=O)[C@H](CCc2ccc(C(F)(F)F)c(Cl)c2)NC(=O)CN(C)C(=O)[C@@H]1Cc1ccc(C(F)(F)F)cc1 [PP0287] ([NMeL]I[NMeA][Aze][NPrPhe(4-CF3)][Sar][hPhe(3-Cl-4-CF3)][Sar][Ac5c][NMeGly(cPent)][NMeD]-Morpholide; lactam N-11)	C (A compound having a KD ratio of 0.1 or more and less than 3 is denoted as C)	14.5 nM	C (A compound having a KD ratio of 0.1 or more and less than 3 is denoted as C)
CCCN1CC(=O)NC2(CCCC2)C(=O)N(C)[C@@H](C2CCCC2)C(=O)N(C)[C@H](C(=O)N2CCOCC2)CC(=O)N(C)[C@@H](CC(C)C)C(=O)N[C@@H]([C@@H](C)CC)C(=O)N(C)[C@@H](C)C(=O)N2CC[C@H]2C(=O)N(CCC)[C@@H](Cc2ccc(C(F)(F)F)cc2)C(=O)N(C)CC(=O)N[C@@H](CCc2ccc(C(F)(F)F)c(Cl)c2)C1=O [PP0288] ([NMeL]I[NMeA][Aze][NPrPhe(4-CF3)][Sar][hPhe(3-Cl-4-CF3)][NPrGly][Ac5c][NMeGly(cPent)][NMeD]-Morpholide; lactam N-11)	B (a compound having 3 or more and less than 10 is denoted as B)	14.3 nM	C (A compound having a KD ratio of 0.1 or more and less than 3 is denoted as C)
CCCN1C(=O)CN(C)C(=O)CN(CC)C(=O)[C@H]([C@@H](C)CC)NC(=O)[C@@H]2CCCCCN2C(=O)C[C@@H](C(=O)N2CCOCC2)N(C)C(=O)[C@H](C2CCCC2)N(C)C(=O)C2(CCCC2)NC(=O)[C@@H]2CCCN2C(=O)[C@H](CCc2ccc(C(F)(F)F)c(Cl)c2)NC(=O)CN(C)C(=O)[C@@H]1Cc1ccc(C(F)(F)F)cc1 [PP0289] ([hPip]I[NEtG][Sar][NPrPhe(4-CF3)][Sar][hPhe(3-Cl-4-CF3)]P[Ac5c][NMeGly(cPent)][NMeD]-Morpholide; lactam N-11)	B (a compound having 3 or more and less than 10 is denoted as B)	76.4 nM	B (a compound having 3 or more and less than 10 is denoted as B)
CCCN1C(=O)CN(C)C(=O)CN(CC)C(=O)[C@H](CC(F)(F)F)NC(=O)[C@H](CC(C)C)N(C)C(=O)C[C@@H](C(=O)N2CCOCC2)N(C)C(=O)[C@H](C2CCCC2)N(C)C(=O)C2(CCCC2)NC(=O)[C@@H]2CCCN2C(=O)[C@H](CCc2ccc(C(F)(F)F)c(Cl)c2)NC(=O)CN(C)C(=O)[C@@H]1Cc1ccc(C(F)(F)F)cc1 [PP0291] ([NMeL][Abu(4,4,4-F3)][NEtG][Sar][NPrPhe(4-CF3)][Sar][hPhe(3-Cl-4-CF3)]P[Ac5c][NMeGly(cPent)][NMeD]-Morpholide; lactam N-11)	B (a compound having 3 or more and less than 10 is denoted as B)	31 nM	B (a compound having 3 or more and less than 10 is denoted as B)
